From publication PMC11093748, “De novo identification of CD4^+ T cell epitopes” (Nature Methods, 2024)

Legend:
Experiment in all cases: I-Ag7 SABR-II library screen, enrichment score
Type in all cases: cell-based, mouse
TCR36 = conditions: TCR_Mean minus PREDICTED_TCR (slope 0.914754, intercept 2.09193e-5 on LIB_Mean), TCR 36, run PZ57
Source text: (§1) We then asked whether SABR-IIs could be used to present a library of epitopes for CD4^+ T cell antigen discovery. To that end, we constructed a SABR-II library to present epitopes derived from pancreatic islets in I-Ag7 by curating a list of 4,075 published epitopes from the Immune Epitope Database (iedb.org)[50] and a study by Wan et al.[51] (Supplementary Table 1). Of note, this defined library consisted of unmodified epitopes from endogenous proteins, synthetic mimotopes, deamidated epitopes and hybrid insulin peptides (HIPs) that arise from post-translational fusion and are not genetically encoded in vivo[52],[53]. The epitope library was inserted into the I-Ag7 SABR-II backbone through pooled oligonucleotide synthesis, amplification and ligation-free cloning (Extended Data Fig. 3a). The I-Ag7 SABR-II-library was then expressed in NFAT–GFP Jurkat cells. We confirmed that after sequencing, the library accounted for a mean of 708 reads per epitope (Extended Data Fig. 3b). As a proof of concept, we performed co-incubation assays with Jurkat cells expressing the BDC2.5 TCR and sorted the top 1–2% of GFP^+CD69^+ cells at a rate of ~20 min per replicate with three replicates per TCR. We extracted the genomic DNA from sorted cells, amplified the SABR portion of the integrated proviruses and subjected the amplicons to Illumina sequencing (Extended Data Fig. 3c,d). The 1–2% sort gate represents >50-fold enrichment of cognate epitopes with minimal loss of signal (Extended Data Fig. 3e–h). Sequence reads were aligned to the I-Ag7 SABR-II backbone and the corresponding epitopes were scored based on their read counts. For each TCR under investigation, an enrichment score (ES) was determined for all the epitopes in a library. In each experiment, three replicates of a sort with TCR-expressing Jurkat cells were performed and reads were counted post-sequencing. In addition, three replicates of the unsorted library were also sequenced. A linear regression model was built using the unsorted library counts and used to determine the expected abundance of each epitope in the library. The ES was calculated based on the difference between the measured and the expected abundance of each epitope on a per-TCR basis (Fig. 1e). Based on ES values, two quantitative thresholds were used to determine putative cognate epitopes of a given TCR. A high-confidence zone containing clear outliers with a high ES and a low-confidence zone containing weak outliers with a moderately high ES were determined (Fig. 1e). This two-tiered strategy was used to call putative hits from screens. All the top-scoring epitopes for the BDC2.5 TCR were known BDC2.5 ligands containing the WXRM(D/E) motif (Fig. 1f,g, enriched ligands in red), a well-characterized trait of the BDC2.5 TCR[43],[54]–[56]. Across several independent experiments there was limited variation in ES values for the same TCRs and several epitopes fell into high- or low-confidence zones consistently (Extended Data Fig. 4a). Using a different TCR that was isolated from NOD mice, 4-8Ins[57], which recognized the InsB9:23 epitope ([…]), we observed a similar pattern of ES for cognate epitopes (Extended Data Fig. 4b).
(§2) We performed systematic screening of the cloned TCRs against the I-Ag7 SABR-II library. Several TCRs along with a positive control (such as BDC2.5 or 4-8Ins) were screened individually against the library for each sort (Extended Data Fig. 6a and Supplementary Table 4). High- and low-confidence ES zones for each screened TCR were defined by the ES values of the control TCR’s cognate epitopes. For all putative cognate epitopes, single SABR-IIs were constructed, expressed in NFAT–GFP Jurkat cells and used for co-incubation with the corresponding TCRs. Co-incubation assays that yielded a GFP signal higher than that obtained in assays with no TCR were determined to be positive and the epitopes deemed true cognate ligands (Extended Data Fig. 6b,c). […]

TCR12 = conditions: TCR_Mean minus PREDICTED_TCR (from LIB_Mean, SLOPE 0.937219, INTERCEPT 1.54064e-5), PZ51
Source text: as §1, §2

TCR17D = conditions: TCR_Mean minus PREDICTED_TCR (from LIB_Mean, SLOPE 0.965121, INTERCEPT 8.55929e-6), PZ52
Source text: as §1, §2

TCR38 = conditions: I-Ag7 SABR-II library PZ101, CD4 TCR 38; TCR_Mean of 3 replicates minus PREDICTED_TCR (slope 0.968274, intercept 7.78554e-6)
Source text: as §1, §2

TCR3 = tested on: TCR3
Source text: as §1, §2

TCR10B = conditions: TCR_Mean minus PREDICTED_TCR (from LIB_Mean, SLOPE 0.894516, INTERCEPT 2.58857e-5), PZ51
Source text: as §1, §2

TCR17C = conditions: TCR_Mean minus PREDICTED_TCR (from LIB_Mean, SLOPE 0.897918, INTERCEPT 2.50509e-5), PZ52
Source text: as §1, §2

TCR2 = conditions: sheet TCR2-PZ44; ES = TCRObserved - TCRPredicted; TCRPredicted = LIBObserved x SLOPE + INTERCEPT; SLOPE 0.908797, INTERCEPT 2.23811e-5
Source text: as §1, §2

TCR34 = conditions: TCR_Mean minus PREDICTED_TCR (slope 0.916696, intercept 2.04427e-5 on LIB_Mean), TCR 34, run PZ57
Source text: as §1, §2

TCR26 = conditions: TCR_Mean minus PREDICTED_TCR (slope 0.971972, intercept 6.87806e-6 on LIB_Mean), TCR 26, run PZ56
Source text: as §1, §2

TCR6B = conditions: sheet TCR6B-PZ37; ES = TCRObserved - TCRPredicted; TCRPredicted = LIBObserved x SLOPE + INTERCEPT; SLOPE 0.908569, INTERCEPT 2.24372e-5
Source text: as §1, §2

TCR40 = conditions: I-Ag7 SABR-II library PZ101, CD4 TCR 40; TCR_Mean of 3 replicates minus PREDICTED_TCR (slope 0.959981, intercept 9.82052e-6)
Source text: as §1, §2

TCR18 = tested on: TCR18
Source text: as §1, §2

[1] = I-Ag7 library, one biological experiment
[2] = sheet TCR3-PZ37, ES = TCRObserved - TCRPredicted, TCRPredicted = LIBObserved x SLOPE + INTERCEPT, SLOPE 0.907522, INTERCEPT 2.2694e-5
[3] = TCR18, TCR_Mean minus PREDICTED_TCR (from LIB_Mean, SLOPE 0.92089, INTERCEPT 1.94136e-5), PZ52

Row | Sequence | Enrichment score (TCR36) | Enrichment score (TCR12) | Enrichment score (TCR17D) | Enrichment score (TCR38) | Enrichment score (TCR3; [1]) | Enrichment score (TCR3; [2]) | Enrichment score (TCR10B) | Enrichment score (TCR17C) | Enrichment score (TCR2) | Enrichment score (TCR34) | Enrichment score (TCR26) | Enrichment score (TCR6B) | Enrichment score (TCR40) | Enrichment score (TCR18; [1]) | Enrichment score (TCR18; [3])
1 | AAVEEGIVAGGGVTLL | -0.0001187 | -3.643e-5 | 9.065e-5 | 0.0001517 | -0.00015 | -0.00015 | -7.785e-5 | -3.436e-5 | 9.944e-5 | -0.0002018 | -0.0002176 | 4.397e-5 | 6.713e-5 | -8.9534e-5 | -8.9534e-5
2 | AEKVRNLPAGHGLNAQ | -6.905e-5 | -0.0001285 | -0.00018 | -3.923e-5 | -2.569e-5 | -2.569e-5 | -0.0001336 | 2.049e-5 | 0.0001311 | 6.942e-5 | 4.292e-6 | -0.0001883 | -9.416e-5 | 0.0001149 | 0.0001149
3 | AGGVAVIKAGAATEV | -1.016e-5 | -1.359e-5 | -6.024e-5 | 4.352e-5 | -3.191e-5 | -3.191e-5 | 1.586e-6 | -0.0001062 | -1.7e-5 | -0.0001037 | -8.754e-5 | 0.0001547 | 8.867e-6 | -7.134e-5 | -7.134e-5
4 | AKAAVEEGIVAGGGV | -3.854e-5 | -1.697e-5 | -0.0001083 | -6.1876e-5 | -0.0001294 | -0.0001294 | 7.202e-5 | -5.707e-5 | -6.466e-5 | 3.575e-5 | -6.247e-5 | 0.0001193 | -1.429e-5 | -0.0001034 | -0.0001034
5 | ALVREGLRNVAAGANP | -2.092e-5 | -1.438e-5 | -8.6588e-6 | -7.786e-6 | -2.328e-5 | -2.328e-5 | -2.589e-5 | -2.514e-5 | -2.238e-5 | -2.044e-5 | -7.519e-6 | -2.303e-5 | -9.821e-6 | -1.951e-5 | -1.951e-5
